In brackets after ≈: the same amount, converted by molar mass.
What was measured:
[1] = target: T1, Multidrug resistance protein HmrM (Haemophilus influenzae) (UniProt P45272); test: Inhibition of Haemophilus influenza HmrM transporter expressed in Escherichia coli KAM32 assessed as inhibition of bacterial resistance to norfloxacin by measuring norfloxacin MIC at 100 uM incubated for 18 hrs by microbroth dilution method
T1 sequence (whole entry): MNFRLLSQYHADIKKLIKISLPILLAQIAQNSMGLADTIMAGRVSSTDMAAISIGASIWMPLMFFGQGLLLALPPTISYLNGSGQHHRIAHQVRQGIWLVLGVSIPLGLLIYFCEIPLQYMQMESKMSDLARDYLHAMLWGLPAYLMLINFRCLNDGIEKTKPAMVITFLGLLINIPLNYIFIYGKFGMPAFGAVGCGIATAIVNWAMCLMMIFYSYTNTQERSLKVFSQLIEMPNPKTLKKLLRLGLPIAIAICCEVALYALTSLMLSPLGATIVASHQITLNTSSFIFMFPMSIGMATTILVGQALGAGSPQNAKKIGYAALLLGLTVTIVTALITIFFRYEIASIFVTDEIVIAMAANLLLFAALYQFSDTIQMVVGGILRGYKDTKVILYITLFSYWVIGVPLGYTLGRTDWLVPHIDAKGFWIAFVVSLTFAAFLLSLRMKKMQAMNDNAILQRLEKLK

[2] = target: T1, Multidrug resistance protein HmrM (Haemophilus influenzae); test: Inhibition of Haemophilus influenza HmrM transporter expressed in Escherichia coli KAM32 assessed as inhibition of bacterial resistance to norfloxacin by measuring reduction in bacterial growth at 100 uM incubated for 18 hrs by microbroth dilution method
[3] = target: T2, Multidrug resistance protein MdtK (Escherichia coli (strain K12)) (UniProt P37340); test: Inhibition of Escherichia coli MdtK expressed in Escherichia coli KAM32 assessed as inhibition of bacterial growth incubated for 18 hrs by microbroth dilution method
T2 sequence (whole entry): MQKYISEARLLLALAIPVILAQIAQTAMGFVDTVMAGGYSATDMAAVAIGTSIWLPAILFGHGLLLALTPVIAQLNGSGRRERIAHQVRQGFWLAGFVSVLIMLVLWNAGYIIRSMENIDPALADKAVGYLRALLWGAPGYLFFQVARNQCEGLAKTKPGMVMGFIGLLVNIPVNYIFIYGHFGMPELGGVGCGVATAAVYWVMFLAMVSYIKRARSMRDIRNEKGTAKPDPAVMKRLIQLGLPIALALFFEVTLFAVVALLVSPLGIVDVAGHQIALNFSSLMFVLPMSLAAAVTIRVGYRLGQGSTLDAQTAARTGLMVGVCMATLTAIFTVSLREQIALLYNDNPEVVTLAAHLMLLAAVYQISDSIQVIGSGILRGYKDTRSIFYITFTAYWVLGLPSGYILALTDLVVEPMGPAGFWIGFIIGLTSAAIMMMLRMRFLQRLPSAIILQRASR

[4] = test system: Bacteroides thetaiotaomicron; test: Inhibition of Bacteroides thetaiotaomicron BexA expressed in Escherichia coli KAM32 assessed as inhibition of bacterial growth incubated for 18 hrs by microbroth dilution method
[5] = target: T3, Multidrug and toxin extrusion protein 1 (Homo sapiens, UniProt Q96FL8); test: Inhibition of human MATE1; format: toxicity
T3 sequence (Q96FL8 whole entry): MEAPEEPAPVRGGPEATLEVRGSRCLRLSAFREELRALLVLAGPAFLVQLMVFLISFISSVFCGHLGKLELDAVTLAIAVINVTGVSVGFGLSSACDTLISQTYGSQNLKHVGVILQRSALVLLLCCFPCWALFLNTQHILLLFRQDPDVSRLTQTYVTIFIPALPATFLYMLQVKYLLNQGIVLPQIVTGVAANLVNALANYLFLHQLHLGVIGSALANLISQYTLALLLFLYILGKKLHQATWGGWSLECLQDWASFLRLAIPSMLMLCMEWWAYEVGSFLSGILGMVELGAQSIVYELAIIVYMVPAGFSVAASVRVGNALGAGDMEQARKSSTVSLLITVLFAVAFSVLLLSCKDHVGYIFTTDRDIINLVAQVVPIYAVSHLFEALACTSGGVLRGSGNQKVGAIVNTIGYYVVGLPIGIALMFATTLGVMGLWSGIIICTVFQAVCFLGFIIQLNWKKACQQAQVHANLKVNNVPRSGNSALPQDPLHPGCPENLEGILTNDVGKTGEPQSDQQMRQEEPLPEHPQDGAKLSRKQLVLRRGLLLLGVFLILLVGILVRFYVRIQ

HEK293 = test: Cytotoxicity against human HEK293 cells assessed as reduction in cell viability upto 300 uM incubated for 24 hrs by MTT assay; format: toxicity, cell-based; details: hek293, 24 h

SMILES | MIC [1] [µg/mL] | Efficacy [2] [%] | Efficacy [3] [%] | Efficacy [4] [%] | IC50 [5] [µM] | Activity (HEK293)
CN/C(=N\C#N)NCCSCc1cc(F)cc(F)c1 | 0.04 (≈ 0.141 µM) | 50 | – | – | – | –
CN/C(=N\C#N)NCCCCCc1cccc(F)c1 | 0.02 (≈ 0.0762 µM) | 92 | 86 | 0 | > 100 | Non-Toxic
CN/C(=N\C#N)NCCOCc1cccc(F)c1 | 0.056 (≈ 0.224 µM) | 17 | – | – | – | –
CN/C(=N\C#N)NCCSCc1cccc(C(F)(F)F)c1 | 0.048 (≈ 0.152 µM) | 33 | – | – | – | –
CN/C(=N\C#N)NCCSCc1ccccc1 | 0.056 (≈ 0.225 µM) | 17 | – | – | > 100 | –
CN/C(=N\C#N)NCCSCc1ccccc1F | 0.04 (≈ 0.15 µM) | 50 | – | – | – | –
CN/C(=N\C#N)NCCCCc1cccc(F)c1 | 0.024 (≈ 0.0967 µM) | 83 | 57 | 0 | – | –
CS/C(=N\C#N)NCCSCc1cccc(F)c1 | 0.032 (≈ 0.113 µM) | 67 | – | – | – | –
Fc1cccc(CSCCNc2ncccn2)c1 | 0.056 (≈ 0.213 µM) | 17 | – | – | – | –
CN/C(=N\CCSCc1nc[nH]c1C)NC#N | 0.056 (≈ 0.222 µM) | 17 | – | – | – | –
NCCSCc1cccc(F)c1 | 0.04 (≈ 0.216 µM) | 50 | – | – | – | –
CN/C(=N\C#N)NCCSCCc1cccc(F)c1 | 0.028 (≈ 0.0999 µM) | 75 | 57 | 0 | – | –
CN/C(=N\C#N)NCCSCc1cccc(OC)c1 | 0.04 (≈ 0.144 µM) | 50 | – | – | – | –
CN/C(=N\C#N)NCCSCc1cccc(F)c1 | 0.032 (≈ 0.12 µM) | 67 | – | – | > 100 | –
CN/C(=N\C#N)NCCSCc1ccc(F)cc1 | 0.048 (≈ 0.18 µM) | 33 | – | – | – | –
CN/C(=N\C#N)NCCCc1cccc(F)c1 | 0.04 (≈ 0.171 µM) | 50 | – | – | – | –
CN/C(=N\C#N)NCCSCc1cccc([N+](=O)[O-])c1 | 0.032 (≈ 0.109 µM) | 67 | – | – | – | –
N=C(N)NCCSCc1cccc(F)c1 | 0.048 (≈ 0.211 µM) | 33 | – | – | – | –
CN/C(=N\C#N)NCCSCc1ccc(F)c(F)c1 | 0.048 (≈ 0.169 µM) | 33 | – | – | – | –
Cc1[nH]cnc1CSCCNc1ncccn1 | – | – | – | – | 2 | –
CN/C(=N\C#N)NCCc1cccc(F)c1 | 0.056 (≈ 0.254 µM) | 17 | – | – | – | –
